From the NIST ThermoML archive (doi:10.1016/j.jct.2016.06.034)

Assay: mn = molality of the nth substance listed, in mol/kg
Settings: for electrical conductivity / speed of sound / mass density: 84.5 kPa, Liquid; for electrical conductivity: Alternating current cell with electrodes; for speed of sound: Frequency=3 MHz, Sing-around technique in a fixed-path interferometer; for mass density: Vibrating tube method; for surface tension liquid-gas: platinum plate method

CCCCCCCCCCn1cc[n+](C)c1.[Br-] [1-decyl-3-methylimidazolium bromide] + O
Settings	electrical conductivity [S/m]	mass density [kg/m3]	speed of sound [m/s]	surface tension liquid-gas [mN/m]
288.15 K, m1 = 1e-05	0.000112	–	–	–
288.15 K, m1 = 2e-05	0.000223	–	–	–
288.15 K, m1 = 4e-05	0.000329	–	–	–
288.15 K, m1 = 5e-05	0.000442	–	–	–
288.15 K, m1 = 8e-05	0.000678	–	–	–
288.15 K, m1 = 0.00012	0.00103	–	–	–
288.15 K, m1 = 0.00018	0.00151	–	–	–
288.15 K, m1 = 0.00026	0.00212	–	–	–
288.15 K, m1 = 0.00033	0.00273	–	–	–
288.15 K, m1 = 0.00044	0.00357	–	–	–
288.15 K, m1 = 0.00056	0.00455	–	–	–
288.15 K, m1 = 0.00075	0.006	–	–	–
288.15 K, m1 = 0.00098	0.00777	–	–	–
288.15 K, m1 = 0.00127	0.01	–	–	–
288.15 K, m1 = 0.00152	0.0119	–	–	–
288.15 K, m1 = 0.0021	0.0163	–	–	–
288.15 K, m1 = 0.00279	0.0217	–	–	–
288.15 K, m1 = 0.00349	0.027	–	–	–
288.15 K, m1 = 0.00439	0.0336	–	–	–
288.15 K, m1 = 0.00754	0.0559	–	–	–
288.15 K, m1 = 0.0095	–	999.502	1468.8	–
288.15 K, m1 = 0.01045	0.0758	–	–	–
288.15 K, m1 = 0.01291	0.0921	–	–	–
288.15 K, m1 = 0.01379	–	999.684	1469.8	–
288.15 K, m1 = 0.01562	0.11	–	–	–
288.15 K, m1 = 0.01652	–	999.799	1470.4	–
288.15 K, m1 = 0.01821	0.126	–	–	–
288.15 K, m1 = 0.0208	0.143	–	–	–
288.15 K, m1 = 0.02179	–	1000.02	1471.6	–
288.15 K, m1 = 0.02334	0.158	–	–	–
288.15 K, m1 = 0.0258	0.173	–	–	–
288.15 K, m1 = 0.02615	–	1000.2	1472.5	–
288.15 K, m1 = 0.02825	0.188	–	–	–
288.15 K, m1 = 0.03047	0.2	–	–	–
288.15 K, m1 = 0.03106	–	1000.41	1473.5	–
288.15 K, m1 = 0.03259	0.212	–	–	–
288.15 K, m1 = 0.03338	–	1000.51	1474	–
288.15 K, m1 = 0.03462	0.224	–	–	–
288.15 K, m1 = 0.03662	0.236	–	–	–
288.15 K, m1 = 0.03819	–	1000.71	1475	–
288.15 K, m1 = 0.03965	0.252	–	–	–
288.15 K, m1 = 0.0406	–	1000.81	1475.3	–
288.15 K, m1 = 0.04174	0.262	–	–	–
288.15 K, m1 = 0.04332	–	1000.92	1475.6	–
288.15 K, m1 = 0.04366	0.27	–	–	–
288.15 K, m1 = 0.04517	0.275	–	–	–
288.15 K, m1 = 0.04614	–	1001.03	1476	–
288.15 K, m1 = 0.04687	0.28	–	–	–
288.15 K, m1 = 0.04895	0.285	–	–	–
288.15 K, m1 = 0.05102	0.289	–	–	–
288.15 K, m1 = 0.05341	0.294	–	–	–
288.15 K, m1 = 0.05515	–	1001.35	1476.4	–
288.15 K, m1 = 0.05563	0.298	–	–	–
288.15 K, m1 = 0.05739	0.301	–	–	–
288.15 K, m1 = 0.05949	0.306	–	–	–
288.15 K, m1 = 0.06232	0.311	–	–	–
288.15 K, m1 = 0.06396	–	1001.66	1476.7	–
288.15 K, m1 = 0.07815	–	1002.15	1477	–
288.15 K, m1 = 0.122	–	1003.65	1477.9	–
288.15 K, m1 = 0.1726	–	1005.33	1478.9	–
288.15 K, m1 = 0.2247	–	1007.03	1480	–
288.15 K, m1 = 0.2539	–	1007.95	1480.6	–
293.15 K, m1 = 1e-05	0.00016	–	–	–
293.15 K, m1 = 3e-05	0.000289	–	–	–
293.15 K, m1 = 6e-05	0.000554	–	–	–
293.15 K, m1 = 7e-05	0.000686	–	–	–
293.15 K, m1 = 9e-05	0.00082	–	–	–
293.15 K, m1 = 0.0001	0.000947	–	–	–
293.15 K, m1 = 0.00011	0.00106	–	–	–
293.15 K, m1 = 0.00016	0.00146	–	–	–
293.15 K, m1 = 0.00025	0.00231	–	–	–
293.15 K, m1 = 0.00047	0.00432	–	–	–
293.15 K, m1 = 0.00077	0.00695	–	–	–
293.15 K, m1 = 0.0015	0.0134	–	–	–
293.15 K, m1 = 0.00228	0.0203	–	–	–
293.15 K, m1 = 0.00309	0.0273	–	–	–
293.15 K, m1 = 0.00382	0.0335	–	–	–
293.15 K, m1 = 0.00535	0.0458	–	–	–
293.15 K, m1 = 0.00805	–	–	–	56.25
293.15 K, m1 = 0.00813	0.0678	–	–	–
293.15 K, m1 = 0.0095	–	998.589	1484.6	–
293.15 K, m1 = 0.01113	0.0909	–	–	–
293.15 K, m1 = 0.01202	–	–	–	52.74
293.15 K, m1 = 0.01379	–	998.766	1485.5	–
293.15 K, m1 = 0.01397	0.112	–	–	–
293.15 K, m1 = 0.01627	–	–	–	49.46
293.15 K, m1 = 0.01652	–	998.876	1486.1	–
293.15 K, m1 = 0.01667	0.132	–	–	–
293.15 K, m1 = 0.01935	0.152	–	–	–
293.15 K, m1 = 0.02179	–	999.09	1487.2	–
293.15 K, m1 = 0.02193	0.17	–	–	–
293.15 K, m1 = 0.02206	–	–	–	45.32
293.15 K, m1 = 0.02449	0.187	–	–	–
293.15 K, m1 = 0.02615	–	999.268	1488	–
293.15 K, m1 = 0.02695	0.204	–	–	–
293.15 K, m1 = 0.02718	–	–	–	42.2
293.15 K, m1 = 0.02918	0.219	–	–	–
293.15 K, m1 = 0.03028	–	–	–	40.63
293.15 K, m1 = 0.03106	–	999.467	1489	–
293.15 K, m1 = 0.0311	0.231	–	–	–
293.15 K, m1 = 0.03299	0.243	–	–	–
293.15 K, m1 = 0.03338	–	999.559	1489.4	–
293.15 K, m1 = 0.03499	0.256	–	–	–
293.15 K, m1 = 0.03568	–	–	–	38.17
293.15 K, m1 = 0.03691	0.269	–	–	–
293.15 K, m1 = 0.03819	–	999.755	1490.3	–
293.15 K, m1 = 0.03912	0.282	–	–	–
293.15 K, m1 = 0.03969	–	–	–	37.78
293.15 K, m1 = 0.0406	–	999.853	1490.5	–
293.15 K, m1 = 0.04083	0.292	–	–	–
293.15 K, m1 = 0.04205	–	–	–	37.64
293.15 K, m1 = 0.0425	0.3	–	–	–
293.15 K, m1 = 0.04332	–	999.954	1490.9	–
293.15 K, m1 = 0.04369	0.305	–	–	–
293.15 K, m1 = 0.04444	–	–	–	37.78
293.15 K, m1 = 0.04545	0.311	–	–	–
293.15 K, m1 = 0.04581	–	–	–	37.96
293.15 K, m1 = 0.04614	–	1000.06	1491.1	–
293.15 K, m1 = 0.04751	0.317	–	–	–
293.15 K, m1 = 0.04833	–	–	–	38.56
293.15 K, m1 = 0.04952	0.323	–	–	–
293.15 K, m1 = 0.05149	0.327	–	–	–
293.15 K, m1 = 0.05344	0.332	–	–	–
293.15 K, m1 = 0.05515	–	1000.37	1491.4	–
293.15 K, m1 = 0.05532	0.336	–	–	–
293.15 K, m1 = 0.058	0.342	–	–	–
293.15 K, m1 = 0.05963	0.345	–	–	–
293.15 K, m1 = 0.06141	–	–	–	39.32
293.15 K, m1 = 0.06396	–	1000.67	1491.6	–
293.15 K, m1 = 0.07815	–	1001.15	1491.8	–
293.15 K, m1 = 0.0858	–	–	–	39.48
293.15 K, m1 = 0.122	–	1002.6	1492.4	–
293.15 K, m1 = 0.1481	–	–	–	39.36
293.15 K, m1 = 0.1726	–	1004.24	1493	–
293.15 K, m1 = 0.1979	–	–	–	39.38
293.15 K, m1 = 0.2247	–	1005.89	1493.8	–
293.15 K, m1 = 0.2539	–	1006.79	1494.1	–
298.15 K, m1 = 1e-05	0.000165	–	–	–
298.15 K, m1 = 3e-05	0.00031	–	–	–
298.15 K, m1 = 4e-05	0.000454	–	–	–
298.15 K, m1 = 5e-05	0.000592	–	–	–
298.15 K, m1 = 7e-05	0.000739	–	–	–
298.15 K, m1 = 0.0001	0.00103	–	–	–
298.15 K, m1 = 0.00012	0.00132	–	–	–
298.15 K, m1 = 0.00018	0.00193	–	–	–
298.15 K, m1 = 0.00025	0.00268	–	–	–
298.15 K, m1 = 0.0004	0.00418	–	–	–
298.15 K, m1 = 0.0006	0.00622	–	–	–
298.15 K, m1 = 0.00096	0.00987	–	–	–
298.15 K, m1 = 0.00171	0.0172	–	–	–
298.15 K, m1 = 0.00264	0.0265	–	–	–
298.15 K, m1 = 0.00371	0.0368	–	–	–
298.15 K, m1 = 0.00412	–	–	–	54.68
298.15 K, m1 = 0.00504	0.0494	–	–	–
298.15 K, m1 = 0.00703	0.0685	–	–	–
298.15 K, m1 = 0.00741	–	–	–	50.92
298.15 K, m1 = 0.00984	0.0933	–	–	–
298.15 K, m1 = 0.01142	–	–	–	47.08
298.15 K, m1 = 0.01267	0.117	–	–	–
298.15 K, m1 = 0.01525	0.139	–	–	–
298.15 K, m1 = 0.01559	–	–	–	43.86
298.15 K, m1 = 0.01793	0.16	–	–	–
298.15 K, m1 = 0.01865	–	–	–	42.13
298.15 K, m1 = 0.02048	0.181	–	–	–
298.15 K, m1 = 0.023	0.201	–	–	–
298.15 K, m1 = 0.02466	–	–	–	39.8
298.15 K, m1 = 0.02535	0.219	–	–	–
298.15 K, m1 = 0.02772	0.237	–	–	–
298.15 K, m1 = 0.02893	–	–	–	38.51
298.15 K, m1 = 0.02961	0.251	–	–	–
298.15 K, m1 = 0.03171	0.267	–	–	–
298.15 K, m1 = 0.03351	–	–	–	37.65
298.15 K, m1 = 0.03974	–	–	–	37.31
298.15 K, m1 = 0.04641	–	–	–	37.49
298.15 K, m1 = 0.05292	–	–	–	38.51
298.15 K, m1 = 0.05743	–	–	–	38.59
298.15 K, m1 = 0.06462	–	–	–	38.74
298.15 K, m1 = 0.0747	–	–	–	38.93
298.15 K, m1 = 0.0901	–	–	–	38.82
298.15 K, m1 = 0.1219	–	–	–	38.81
298.15 K, m1 = 0.1645	–	–	–	38.91
